Experimental findings from patent US20120328711A1, “Antimicrobial system for selective, site-activated binding at target sites” (priority 2011, published 2012) are described below.

The structures appear in SMILES notation.

The data set can be described thus: Peroxide retention after desiccation and rehydration (peroxide check strips). The class given is physicochemical. Conditions: 1 g-10 g extract in 20 ml 35% hydrogen peroxide, heated at 80° C., desiccated to 5 ml, rehydrated; colorimetric strips.

Turning to `Oc1ccc(C=Cc2cc(O)cc(O)c2)cc1` [resveratrol, Resveratrol], the peroxide retention capability entry is given as “relatively less ability to form stable perhydrates”.
